Literature values, collected in patent publication US7652024B2, “Acylated spiropiperidine derivatives as melanocortin-4 receptor modulators” (Merck Sharp & Dohme Corp., priority 2005, dated 2010).

System: erectile dysfunction patients

CCCc1nn(C)c2c(=O)[nH]c(-c3cc(S(=O)(=O)N4CCN(C)CC4)ccc3OCC)nc12 [Sildenafil, sildenafil]
effective in share of patients: about 70%
